The NIST ThermoML archive (doi:10.1016/j.tca.2015.06.017)
Numbers after ± are expanded uncertainties.

Experiment: xn = mol fraction of the nth substance listed
Details: Liquid, Vibrating tube method

Compound `CCCCCl` [1-chlorobutane] + CCCCCCC has a mass density (313.15 K, 20000 kPa, x2 = 0.5026) of 767.37 ± 0.42 kg/m3, a mass density (313.15 K, 20000 kPa, x2 = 0.6012) of 749.02 ± 0.44 kg/m3 and a mass density (313.15 K, 20000 kPa, x2 = 0.7003) of 731.86 ± 0.45 kg/m3. The mass density (313.15 K, 20000 kPa, x2 = 0.7995) was 715.81 ± 0.46 kg/m3, the mass density (313.15 K, 20000 kPa, x2 = 0.9011) was 700.5 ± 0.48 kg/m3 and the mass density (313.15 K, 20000 kPa, x2 = 0.9494) was 693.56 ± 0.48 kg/m3. It also gave a mass density (313.15 K, 30000 kPa, x2 = 0.0508) of 880.41 ± 0.37 kg/m3, a mass density (313.15 K, 30000 kPa, x2 = 0.0994) of 867.36 ± 0.39 kg/m3 and a mass density (313.15 K, 30000 kPa, x2 = 0.2013) of 841.53 ± 0.42 kg/m3. It also gave a mass density (313.15 K, 30000 kPa, x2 = 0.3015) of 818.07 ± 0.45 kg/m3, a mass density (313.15 K, 30000 kPa, x2 = 0.4008) of 796.54 ± 0.47 kg/m3 and a mass density (313.15 K, 30000 kPa, x2 = 0.5026) of 776 ± 0.5 kg/m3. It also gave a mass density (313.15 K, 30000 kPa, x2 = 0.6012) of 757.6 ± 0.52 kg/m3, a mass density (313.15 K, 30000 kPa, x2 = 0.7003) of 740.3 ± 0.54 kg/m3 and a mass density (313.15 K, 30000 kPa, x2 = 0.7995) of 724.2 ± 0.56 kg/m3. The mass density (313.15 K, 30000 kPa, x2 = 0.9011) was 708.75 ± 0.58 kg/m3, the mass density (313.15 K, 30000 kPa, x2 = 0.9494) was 701.75 ± 0.59 kg/m3 and the mass density (313.15 K, 40000 kPa, x2 = 0.0508) was 888.86 ± 0.41 kg/m3. The mass density (313.15 K, 40000 kPa, x2 = 0.0994) was 875.75 ± 0.43 kg/m3, the mass density (313.15 K, 40000 kPa, x2 = 0.2013) was 849.87 ± 0.47 kg/m3 and the mass density (313.15 K, 40000 kPa, x2 = 0.3015) was 826.26 ± 0.5 kg/m3. The mass density (313.15 K, 40000 kPa, x2 = 0.4008) was 804.63 ± 0.54 kg/m3, the mass density (313.15 K, 40000 kPa, x2 = 0.5026) was 783.99 ± 0.57 kg/m3 and the mass density (313.15 K, 40000 kPa, x2 = 0.6012) was 765.46 ± 0.6 kg/m3. It also gave a mass density (313.15 K, 40000 kPa, x2 = 0.7003) of 748.11 ± 0.63 kg/m3, a mass density (313.15 K, 40000 kPa, x2 = 0.7995) of 731.87 ± 0.66 kg/m3 and a mass density (313.15 K, 40000 kPa, x2 = 0.9011) of 716.29 ± 0.68 kg/m3. It also gave a mass density (313.15 K, 40000 kPa, x2 = 0.9494) of 709.25 ± 0.69 kg/m3, a mass density (313.15 K, 50000 kPa, x2 = 0.0508) of 896.61 ± 0.43 kg/m3 and a mass density (313.15 K, 50000 kPa, x2 = 0.0994) of 883.49 ± 0.46 kg/m3. The mass density (313.15 K, 50000 kPa, x2 = 0.2013) was 857.51 ± 0.51 kg/m3, the mass density (313.15 K, 50000 kPa, x2 = 0.3015) was 833.86 ± 0.56 kg/m3 and the mass density (313.15 K, 50000 kPa, x2 = 0.4008) was 812.1 ± 0.6 kg/m3. It also gave a mass density (313.15 K, 50000 kPa, x2 = 0.5026) of 791.37 ± 0.64 kg/m3, a mass density (313.15 K, 50000 kPa, x2 = 0.6012) of 772.75 ± 0.68 kg/m3 and a mass density (313.15 K, 50000 kPa, x2 = 0.7003) of 755.31 ± 0.71 kg/m3. The mass density (313.15 K, 50000 kPa, x2 = 0.7995) was 738.98 ± 0.75 kg/m3, the mass density (313.15 K, 50000 kPa, x2 = 0.9011) was 723.31 ± 0.78 kg/m3 and the mass density (313.15 K, 50000 kPa, x2 = 0.9494) was 716.21 ± 0.79 kg/m3. For the same compound, the mass density (313.15 K, 60000 kPa, x2 = 0.0508) was 903.88 ± 0.46 kg/m3, the mass density (313.15 K, 60000 kPa, x2 = 0.0994) was 890.72 ± 0.49 kg/m3 and the mass density (313.15 K, 60000 kPa, x2 = 0.2013) was 864.67 ± 0.55 kg/m3. The mass density (313.15 K, 60000 kPa, x2 = 0.3015) was 840.92 ± 0.6 kg/m3, the mass density (313.15 K, 60000 kPa, x2 = 0.4008) was 819.09 ± 0.66 kg/m3 and the mass density (313.15 K, 60000 kPa, x2 = 0.5026) was 798.31 ± 0.71 kg/m3. The mass density (313.15 K, 60000 kPa, x2 = 0.6012) was 779.58 ± 0.75 kg/m3, the mass density (313.15 K, 60000 kPa, x2 = 0.7003) was 762 ± 0.79 kg/m3 and the mass density (313.15 K, 60000 kPa, x2 = 0.7995) was 745.59 ± 0.83 kg/m3. For the same compound, the mass density (313.15 K, 60000 kPa, x2 = 0.9011) was 729.82 ± 0.87 kg/m3, the mass density (313.15 K, 60000 kPa, x2 = 0.9494) was 722.67 ± 0.89 kg/m3 and the mass density (313.15 K, 65000 kPa, x2 = 0.0508) was 907.45 ± 0.47 kg/m3. It also gave a mass density (313.15 K, 65000 kPa, x2 = 0.0994) of 894.26 ± 0.5 kg/m3, a mass density (313.15 K, 65000 kPa, x2 = 0.2013) of 868.13 ± 0.57 kg/m3 and a mass density (313.15 K, 65000 kPa, x2 = 0.3015) of 844.29 ± 0.63 kg/m3. For the same compound, the mass density (313.15 K, 65000 kPa, x2 = 0.4008) was 822.37 ± 0.68 kg/m3, the mass density (313.15 K, 65000 kPa, x2 = 0.5026) was 801.56 ± 0.74 kg/m3 and the mass density (313.15 K, 65000 kPa, x2 = 0.6012) was 782.77 ± 0.78 kg/m3. The mass density (313.15 K, 65000 kPa, x2 = 0.7003) was 765.13 ± 0.83 kg/m3, the mass density (313.15 K, 65000 kPa, x2 = 0.7995) was 748.66 ± 0.87 kg/m3 and the mass density (313.15 K, 65000 kPa, x2 = 0.9011) was 732.82 ± 0.91 kg/m3. The mass density (313.15 K, 65000 kPa, x2 = 0.9494) was 725.63 ± 0.93 kg/m3, the mass density (323.15 K, 100 kPa, x2 = 0.0508) was 838.56 ± 0.24 kg/m3 and the mass density (323.15 K, 100 kPa, x2 = 0.0994) was 825.81 ± 0.24 kg/m3. For the same compound, the mass density (323.15 K, 100 kPa, x2 = 0.2013) was 800.61 ± 0.24 kg/m3, the mass density (323.15 K, 100 kPa, x2 = 0.3015) was 777.72 ± 0.24 kg/m3 and the mass density (323.15 K, 100 kPa, x2 = 0.4008) was 756.76 ± 0.24 kg/m3. The mass density (323.15 K, 100 kPa, x2 = 0.5026) was 736.89 ± 0.25 kg/m3, the mass density (323.15 K, 100 kPa, x2 = 0.6012) was 719.03 ± 0.25 kg/m3 and the mass density (323.15 K, 100 kPa, x2 = 0.7003) was 702.32 ± 0.25 kg/m3. For the same compound, the mass density (323.15 K, 100 kPa, x2 = 0.7995) was 686.71 ± 0.25 kg/m3, the mass density (323.15 K, 100 kPa, x2 = 0.9011) was 671.83 ± 0.25 kg/m3 and the mass density (323.15 K, 100 kPa, x2 = 0.9494) was 665.13 ± 0.25 kg/m3. The mass density (323.15 K, 2000 kPa, x2 = 0.0508) was 840.94 ± 0.25 kg/m3, the mass density (323.15 K, 2000 kPa, x2 = 0.0994) was 828.16 ± 0.25 kg/m3 and the mass density (323.15 K, 2000 kPa, x2 = 0.2013) was 802.98 ± 0.26 kg/m3. For the same compound, the mass density (323.15 K, 2000 kPa, x2 = 0.3015) was 780.1 ± 0.26 kg/m3, the mass density (323.15 K, 2000 kPa, x2 = 0.4008) was 759.09 ± 0.26 kg/m3 and the mass density (323.15 K, 2000 kPa, x2 = 0.5026) was 739.17 ± 0.26 kg/m3. The mass density (323.15 K, 2000 kPa, x2 = 0.6012) was 721.27 ± 0.27 kg/m3, the mass density (323.15 K, 2000 kPa, x2 = 0.7003) was 704.55 ± 0.27 kg/m3 and the mass density (323.15 K, 2000 kPa, x2 = 0.7995) was 688.99 ± 0.27 kg/m3. It also gave a mass density (323.15 K, 2000 kPa, x2 = 0.9011) of 674.07 ± 0.27 kg/m3, a mass density (323.15 K, 2000 kPa, x2 = 0.9494) of 667.35 ± 0.28 kg/m3 and a mass density (323.15 K, 5000 kPa, x2 = 0.0508) of 844.77 ± 0.27 kg/m3. It also gave a mass density (323.15 K, 5000 kPa, x2 = 0.0994) of 831.99 ± 0.27 kg/m3, a mass density (323.15 K, 5000 kPa, x2 = 0.2013) of 806.76 ± 0.28 kg/m3 and a mass density (323.15 K, 5000 kPa, x2 = 0.3015) of 783.86 ± 0.28 kg/m3. For the same compound, the mass density (323.15 K, 5000 kPa, x2 = 0.4008) was 762.86 ± 0.29 kg/m3, the mass density (323.15 K, 5000 kPa, x2 = 0.5026) was 742.92 ± 0.29 kg/m3 and the mass density (323.15 K, 5000 kPa, x2 = 0.6012) was 724.95 ± 0.3 kg/m3. It also gave a mass density (323.15 K, 5000 kPa, x2 = 0.7003) of 708.22 ± 0.3 kg/m3.
